# Reference: patent US12497405B2, “Bicyclic heterocycle compounds methods of use thereof for the treatment of herpes viruses” (Merck Sharp & Dohme LLC, priority 2019, dated 2025)
# Target: varicella zoster virus DNA polymerase (Varicella-zoster virus (strain Dumas) (HHV-3) (Human herpesvirus 3), UniProt P09252)
# Experiment: VZV polymerase assay (AlphaLISA)
# Format: biochemical
# Details: VZV polymerase 0.4 nM, 30 min pre-incubation, 60 minute at 37° C.
# Procedure: (§1) Human cytomegalovirus and varicella zoster virus DNA polymerases were expressed via baculovirus vector in SF21 cells and purified. Heterodimeric nucleic acid substrate used in the herpesvirus polymerase reactions were generated by annealing a 59-mer template to a 17-mer digoxigenin-labeled primer. Polymerase (HCMV final concentration of 0.2 nM; VZV final concentration of 0.4 nM) was combined with an inhibitor compound or DMSO in assay buffer (10 mM HEPES, pH 7.5, 25 mM KCl, 25 mM NaCl, 5 mM MgCl2, 5% glycerol, 0.67 mg/ml bovine serum albumin, and 1 mM tris(2-carboxyethyl)phosphine)), and this mixture was pre-incubated for 30 minutes at room temperature in 384-well microtiter plates. The polymerization reaction was initiated by the addition of template/primer substrate (final concentration: 1.6 nM), and dNTPs (final concentration: 24 nM dCTP, 24 nMdGTP, 16 nM dATP, 16 nM dTTP, and 0.8 nM biotin-dUTP). After a 60 minute incubation period at 37° C., the reactions were terminated using quench buffer (25 mM HEPES pH 7.5, 100 mM NaCl, 0.25% Tween-20, 12 mM EDTA, and 1 mg/ml bovine serum albumin). Incorporation of biotinylated UTP was detected with 2.5-5 μg/mL anti-DIG AlphaLISA acceptor beads and 5-10 μg/mL streptavidin AlphaLISA donor beads (PerkinElmer). Compound effects were normalized to the window defined by the controls (DMSO only and pre-quenched wells), and were fit using a 4-parameter algorithm to report an IC50.
row,SMILES,IC50 [nM]
1,Cc1nc2cc(-c3cn(C(F)F)cn3)c(O[C@H]3CCN4C(=O)OC[C@@H]4C3)cc2c(=O)n1Cc1ccc(C#N)cc1 [Example 80],5.6
2,O=C1OC[C@@H]2C[C@@H](Oc3cc4c(=O)n(Cc5ccc(Cl)cc5)ccc4nc3-c3cnn(C(F)F)c3)CCN12 [Example 31],2.1
3,"Cc1nc2cc(C3CCC3O)c(O[C@H]3CCN4C(=O)OC[C@@H]4C3)cc2c(=O)n1Cc1ccc(C#N)cc1 (single isomer, unassigned) [Example 85]",11
4,Cc1nc2cc(-c3nc4n(n3)CCN(C)C4)c(O[C@H]3CCN4C(=O)OC[C@@H]4C3)cc2c(=O)n1Cc1ccc(Cl)cc1 [Example 81],27
5,O=C1OC[C@@H]2C[C@@H](Oc3cc4c(=O)n(Cc5ccc(Cl)cc5)ccc4cc3-c3cnn(C(F)F)c3)CCN12 [Example 27],5.9
6,Cc1nc2ccc(O[C@H]3CCN4C(=O)OC[C@@H]4C3)cc2c(=O)n1Cc1ccc(C#N)cc1 [Example 59],29
7,Cc1ncc(-c2cc3nc(C)n(Cc4ccc(Cl)cc4)c(=O)c3cc2O[C@H]2CCN3C(=O)OC[C@@H]3C2)cn1 [Example 90],16
8,Cc1nc2cc(-c3cn(C(F)F)cn3)c(O[C@H]3CCN4C(=O)OC[C@@H]4C3)cc2c(=O)n1Cc1ccc(Cl)cc1 [Example 82],7.1
9,Cc1nc2cc(C3CC(O)C3)c(O[C@H]3CCN4C(=O)OC[C@@H]4C3)cc2c(=O)n1Cc1ccc(C#N)cc1 (some centres unmarked) [Example 72],4.7
10,Cc1nc2cc(C3CC(C)(O)C3)c(O[C@H]3CCN4C(=O)OC[C@@H]4C3)cc2c(=O)n1Cc1ccc(C#N)cc1 (some centres unmarked) [Example 74],6.4
11,O=C1OC[C@@H]2C[C@@H](Oc3cnc4ncn(Cc5ccc(Cl)cc5)c(=O)c4c3)CCN12 [Example 28],60
12,O=C1OC[C@@H]2C[C@@H](Oc3ccc4nc(C5CC5)n(Cc5ccc(Cl)cc5)c(=O)c4c3)CCN12 [Example 49],43
13,COc1nc2cc(-c3cnco3)c(O[C@H]3CCN4C(=O)OC[C@@H]4C3)cc2c(=O)n1Cc1ccc(C#N)cc1 [Example 9],0.44

# Test system: HSV1
# Experiment: Viral qPCR assay, HSV1
# Format: cell-based
# Details: Human alphaherpesvirus 1, 72 h, infected cells, viral genome copies by qPCR normalized to PPIA, read-out: HSV1 Cell EC50
# Procedure, shortened: (§2)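 Cells (MRC5/Vero/MeWo) + virus → onto compound plates, 10-pt 3-fold dilutions; ~72 hrs, 37° C, 5% CO2. Lysis with NP-40/Tween-20/proteinase K, 56° C 1 h, then 95° C 10 min. qPCR of viral gene vs PPIA, copies from plasmid standards. 4-parameter EC50.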
row,SMILES,EC50 [nM]
1,Cc1nc2cc(-c3cn(C(F)F)cn3)c(O[C@H]3CCN4C(=O)OC[C@@H]4C3)cc2c(=O)n1Cc1ccc(C#N)cc1 [Example 80],157
2,O=C1OC[C@@H]2C[C@@H](Oc3cc4c(=O)n(Cc5ccc(Cl)cc5)ccc4nc3-c3cnn(C(F)F)c3)CCN12 [Example 31],139
3,"Cc1nc2cc(C3CCC3O)c(O[C@H]3CCN4C(=O)OC[C@@H]4C3)cc2c(=O)n1Cc1ccc(C#N)cc1 (single isomer, unassigned) [Example 85]",673
4,Cc1nc2cc(-c3nc4n(n3)CCN(C)C4)c(O[C@H]3CCN4C(=O)OC[C@@H]4C3)cc2c(=O)n1Cc1ccc(Cl)cc1 [Example 81],364
5,O=C1OC[C@@H]2C[C@@H](Oc3cc4c(=O)n(Cc5ccc(Cl)cc5)ccc4cc3-c3cnn(C(F)F)c3)CCN12 [Example 27],124
6,Cc1nc2ccc(O[C@H]3CCN4C(=O)OC[C@@H]4C3)cc2c(=O)n1Cc1ccc(C#N)cc1 [Example 59],746
7,Cc1ncc(-c2cc3nc(C)n(Cc4ccc(Cl)cc4)c(=O)c3cc2O[C@H]2CCN3C(=O)OC[C@@H]3C2)cn1 [Example 90],214
8,Cc1nc2cc(-c3cn(C(F)F)cn3)c(O[C@H]3CCN4C(=O)OC[C@@H]4C3)cc2c(=O)n1Cc1ccc(Cl)cc1 [Example 82],63
9,Cc1nc2cc(C3CC(O)C3)c(O[C@H]3CCN4C(=O)OC[C@@H]4C3)cc2c(=O)n1Cc1ccc(C#N)cc1 (some centres unmarked) [Example 72],181
10,Cc1nc2cc(C3CC(C)(O)C3)c(O[C@H]3CCN4C(=O)OC[C@@H]4C3)cc2c(=O)n1Cc1ccc(C#N)cc1 (some centres unmarked) [Example 74],447
11,O=C1OC[C@@H]2C[C@@H](Oc3cnc4ncn(Cc5ccc(Cl)cc5)c(=O)c4c3)CCN12 [Example 28],1250
12,O=C1OC[C@@H]2C[C@@H](Oc3ccc4nc(C5CC5)n(Cc5ccc(Cl)cc5)c(=O)c4c3)CCN12 [Example 49],1130

# Same assay, conditions: infected cells, ~72 hrs, viral genome copies by qPCR normalized to PPIA; read-out: HSV1 Cell EC50
row,SMILES,EC50 [nM]
1,COc1nc2cc(-c3cnco3)c(O[C@H]3CCN4C(=O)OC[C@@H]4C3)cc2c(=O)n1Cc1ccc(C#N)cc1 [Example 9],20

# Test system: CMV
# Experiment: Viral qPCR assay, CMV
# Format: cell-based
# Details: Human betaherpesvirus 5, 72 h, infected cells, viral genome copies by qPCR normalized to PPIA, read-out: CMV Cell EC50
# Procedure, shortened: as §2
row,SMILES,EC50 [nM]
1,Cc1nc2cc(-c3cn(C(F)F)cn3)c(O[C@H]3CCN4C(=O)OC[C@@H]4C3)cc2c(=O)n1Cc1ccc(C#N)cc1 [Example 80],124
2,O=C1OC[C@@H]2C[C@@H](Oc3cc4c(=O)n(Cc5ccc(Cl)cc5)ccc4nc3-c3cnn(C(F)F)c3)CCN12 [Example 31],101
3,"Cc1nc2cc(C3CCC3O)c(O[C@H]3CCN4C(=O)OC[C@@H]4C3)cc2c(=O)n1Cc1ccc(C#N)cc1 (single isomer, unassigned) [Example 85]",338
4,Cc1nc2cc(-c3nc4n(n3)CCN(C)C4)c(O[C@H]3CCN4C(=O)OC[C@@H]4C3)cc2c(=O)n1Cc1ccc(Cl)cc1 [Example 81],265
5,O=C1OC[C@@H]2C[C@@H](Oc3cc4c(=O)n(Cc5ccc(Cl)cc5)ccc4cc3-c3cnn(C(F)F)c3)CCN12 [Example 27],114
6,Cc1nc2ccc(O[C@H]3CCN4C(=O)OC[C@@H]4C3)cc2c(=O)n1Cc1ccc(C#N)cc1 [Example 59],347
7,Cc1ncc(-c2cc3nc(C)n(Cc4ccc(Cl)cc4)c(=O)c3cc2O[C@H]2CCN3C(=O)OC[C@@H]3C2)cn1 [Example 90],241
8,Cc1nc2cc(-c3cn(C(F)F)cn3)c(O[C@H]3CCN4C(=O)OC[C@@H]4C3)cc2c(=O)n1Cc1ccc(Cl)cc1 [Example 82],52
9,Cc1nc2cc(C3CC(O)C3)c(O[C@H]3CCN4C(=O)OC[C@@H]4C3)cc2c(=O)n1Cc1ccc(C#N)cc1 (some centres unmarked) [Example 72],195
10,Cc1nc2cc(C3CC(C)(O)C3)c(O[C@H]3CCN4C(=O)OC[C@@H]4C3)cc2c(=O)n1Cc1ccc(C#N)cc1 (some centres unmarked) [Example 74],55
11,O=C1OC[C@@H]2C[C@@H](Oc3cnc4ncn(Cc5ccc(Cl)cc5)c(=O)c4c3)CCN12 [Example 28],500
12,O=C1OC[C@@H]2C[C@@H](Oc3ccc4nc(C5CC5)n(Cc5ccc(Cl)cc5)c(=O)c4c3)CCN12 [Example 49],369

# Same assay, conditions: infected cells, ~72 hrs, viral genome copies by qPCR normalized to PPIA; read-out: CMV Cell EC50
row,SMILES,EC50 [nM]
1,COc1nc2cc(-c3cnco3)c(O[C@H]3CCN4C(=O)OC[C@@H]4C3)cc2c(=O)n1Cc1ccc(C#N)cc1 [Example 9],35

# Target: Human cytomegalovirus DNA polymerase (Human cytomegalovirus (strain AD169) (HHV-5) (Human herpesvirus 5), UniProt P08546)
# Experiment: CMV polymerase assay (AlphaLISA)
# Format: biochemical
# Details: HCMV polymerase 0.2 nM, 30 min pre-incubation, 60 minute at 37° C.
# Procedure: as §1
row,SMILES,IC50 [nM]
1,Cc1nc2cc(-c3cn(C(F)F)cn3)c(O[C@H]3CCN4C(=O)OC[C@@H]4C3)cc2c(=O)n1Cc1ccc(C#N)cc1 [Example 80],7.6
2,O=C1OC[C@@H]2C[C@@H](Oc3cc4c(=O)n(Cc5ccc(Cl)cc5)ccc4nc3-c3cnn(C(F)F)c3)CCN12 [Example 31],3
3,"Cc1nc2cc(C3CCC3O)c(O[C@H]3CCN4C(=O)OC[C@@H]4C3)cc2c(=O)n1Cc1ccc(C#N)cc1 (single isomer, unassigned) [Example 85]",10
4,Cc1nc2cc(-c3nc4n(n3)CCN(C)C4)c(O[C@H]3CCN4C(=O)OC[C@@H]4C3)cc2c(=O)n1Cc1ccc(Cl)cc1 [Example 81],15
5,O=C1OC[C@@H]2C[C@@H](Oc3cc4c(=O)n(Cc5ccc(Cl)cc5)ccc4cc3-c3cnn(C(F)F)c3)CCN12 [Example 27],5.3
6,Cc1nc2ccc(O[C@H]3CCN4C(=O)OC[C@@H]4C3)cc2c(=O)n1Cc1ccc(C#N)cc1 [Example 59],31
7,Cc1ncc(-c2cc3nc(C)n(Cc4ccc(Cl)cc4)c(=O)c3cc2O[C@H]2CCN3C(=O)OC[C@@H]3C2)cn1 [Example 90],18
8,Cc1nc2cc(-c3cn(C(F)F)cn3)c(O[C@H]3CCN4C(=O)OC[C@@H]4C3)cc2c(=O)n1Cc1ccc(Cl)cc1 [Example 82],5.5
9,Cc1nc2cc(C3CC(O)C3)c(O[C@H]3CCN4C(=O)OC[C@@H]4C3)cc2c(=O)n1Cc1ccc(C#N)cc1 (some centres unmarked) [Example 72],7.5
10,Cc1nc2cc(C3CC(C)(O)C3)c(O[C@H]3CCN4C(=O)OC[C@@H]4C3)cc2c(=O)n1Cc1ccc(C#N)cc1 (some centres unmarked) [Example 74],6.4
11,O=C1OC[C@@H]2C[C@@H](Oc3cnc4ncn(Cc5ccc(Cl)cc5)c(=O)c4c3)CCN12 [Example 28],48
12,O=C1OC[C@@H]2C[C@@H](Oc3ccc4nc(C5CC5)n(Cc5ccc(Cl)cc5)c(=O)c4c3)CCN12 [Example 49],29
13,COc1nc2cc(-c3cnco3)c(O[C@H]3CCN4C(=O)OC[C@@H]4C3)cc2c(=O)n1Cc1ccc(C#N)cc1 [Example 9],0.44

# Test system: HSV2
# Experiment: Viral qPCR assay, HSV2
# Format: cell-based
# Details: Human alphaherpesvirus 2, 72 h, infected cells, viral genome copies by qPCR normalized to PPIA, read-out: HSV2 Cell EC50
# Procedure, shortened: as §2
row,SMILES,EC50 [nM]
1,Cc1nc2cc(-c3cn(C(F)F)cn3)c(O[C@H]3CCN4C(=O)OC[C@@H]4C3)cc2c(=O)n1Cc1ccc(C#N)cc1 [Example 80],227
2,O=C1OC[C@@H]2C[C@@H](Oc3cc4c(=O)n(Cc5ccc(Cl)cc5)ccc4nc3-c3cnn(C(F)F)c3)CCN12 [Example 31],46
3,"Cc1nc2cc(C3CCC3O)c(O[C@H]3CCN4C(=O)OC[C@@H]4C3)cc2c(=O)n1Cc1ccc(C#N)cc1 (single isomer, unassigned) [Example 85]",736
4,Cc1nc2cc(-c3nc4n(n3)CCN(C)C4)c(O[C@H]3CCN4C(=O)OC[C@@H]4C3)cc2c(=O)n1Cc1ccc(Cl)cc1 [Example 81],307
5,O=C1OC[C@@H]2C[C@@H](Oc3cc4c(=O)n(Cc5ccc(Cl)cc5)ccc4cc3-c3cnn(C(F)F)c3)CCN12 [Example 27],59
6,Cc1nc2ccc(O[C@H]3CCN4C(=O)OC[C@@H]4C3)cc2c(=O)n1Cc1ccc(C#N)cc1 [Example 59],561
7,Cc1ncc(-c2cc3nc(C)n(Cc4ccc(Cl)cc4)c(=O)c3cc2O[C@H]2CCN3C(=O)OC[C@@H]3C2)cn1 [Example 90],115
8,Cc1nc2cc(-c3cn(C(F)F)cn3)c(O[C@H]3CCN4C(=O)OC[C@@H]4C3)cc2c(=O)n1Cc1ccc(Cl)cc1 [Example 82],45
9,Cc1nc2cc(C3CC(O)C3)c(O[C@H]3CCN4C(=O)OC[C@@H]4C3)cc2c(=O)n1Cc1ccc(C#N)cc1 (some centres unmarked) [Example 72],404
10,Cc1nc2cc(C3CC(C)(O)C3)c(O[C@H]3CCN4C(=O)OC[C@@H]4C3)cc2c(=O)n1Cc1ccc(C#N)cc1 (some centres unmarked) [Example 74],432
11,O=C1OC[C@@H]2C[C@@H](Oc3cnc4ncn(Cc5ccc(Cl)cc5)c(=O)c4c3)CCN12 [Example 28],884
12,O=C1OC[C@@H]2C[C@@H](Oc3ccc4nc(C5CC5)n(Cc5ccc(Cl)cc5)c(=O)c4c3)CCN12 [Example 49],1080

# Same assay, conditions: infected cells, ~72 hrs, viral genome copies by qPCR normalized to PPIA; read-out: HSV2 Cell EC50
row,SMILES,EC50 [nM]
1,COc1nc2cc(-c3cnco3)c(O[C@H]3CCN4C(=O)OC[C@@H]4C3)cc2c(=O)n1Cc1ccc(C#N)cc1 [Example 9],13
